Measurements from the NIST ThermoML archive (doi:10.1021/je8002157).
± gives the expanded uncertainty stated by the source.

Details: Crystal; DTA

- Normal melting temperature: 193.00 ± 1 °C
SMILES: NC(=O)N1c2ccccc2C=Cc2ccccc21 [carbamazepine]
